Assays:
[1] = Liquid; for mass density: 101 kPa; for viscosity: 101.33 kPa
[2] = xn = mol fraction of the nth substance listed; details: 101 kPa, Liquid

CCCCCCO [hexan-1-ol]
[1]
Details	mass density [kg/m3]	viscosity [mPa·s]
293.15 K	818.84	5.412
298.15 K	–	4.596
303.15 K	811.56	3.964
313.15 K	804.28	2.966

CCCCCCO [hexan-1-ol] + CCCCC(=O)OC
[2], Capillary tube (Ostwald / Ubbelohde) method, x2 = 0
Details	kinematic viscosity [m2/s]
293.15 K	6.609e-06
303.15 K	4.885e-06
313.15 K	3.688e-06

[2], x2 = 0
Details	mass density [kg/m3]
293.15 K	818.84
303.15 K	811.56
313.15 K	804.28

CCCCCCO [hexan-1-ol] + CCCCCCC(=O)OC
[2], x2 = 0
Details	kinematic viscosity [m2/s]	mass density [kg/m3]
293.15 K	6.61e-06	818.84
303.15 K	4.88e-06	811.56
313.15 K	3.69e-06	804.28

CCCCCCC(=O)OC [methyl heptanoate]
[1]
Details	mass density [kg/m3]	viscosity [mPa·s]
283.15 K	–	1.32
293.15 K	879.96	1.112
298.15 K	–	1.023
303.15 K	870.73	0.95
313.15 K	861.65	0.823

CCCCCCC(=O)OC [methyl heptanoate] + CCCCCCO
[2]
Details	kinematic viscosity [m2/s]	mass density [kg/m3]
293.15 K, x1 = 0.0702	5.11e-06	824.02
293.15 K, x1 = 0.1168	4.4e-06	827.4
293.15 K, x1 = 0.189	3.59e-06	832.46
293.15 K, x1 = 0.3018	2.76e-06	840.04
293.15 K, x1 = 0.3966	2.31e-06	846.13
293.15 K, x1 = 0.4898	1.99e-06	851.87
293.15 K, x1 = 0.594	1.74e-06	858.04
293.15 K, x1 = 0.7085	1.52e-06	864.51
293.15 K, x1 = 0.7917	1.42e-06	869.04
293.15 K, x1 = 0.8937	1.32e-06	874.45
293.15 K, x1 = 0.937	1.29e-06	876.69
293.15 K, x1 = 1	1.26e-06	879.96
303.15 K, x1 = 0.0753	3.81e-06	816.9
303.15 K, x1 = 0.12	3.35e-06	819.99
303.15 K, x1 = 0.1919	2.79e-06	824.84
303.15 K, x1 = 0.2963	2.24e-06	831.61
303.15 K, x1 = 0.4003	1.87e-06	838.05
303.15 K, x1 = 0.4934	1.64e-06	843.6
303.15 K, x1 = 0.5979	1.45e-06	849.6
303.15 K, x1 = 0.6849	1.32e-06	854.38
303.15 K, x1 = 0.8004	1.2e-06	860.53
303.15 K, x1 = 0.8676	1.15e-06	864
303.15 K, x1 = 0.9415	1.11e-06	867.77
303.15 K, x1 = 1	1.09e-06	870.73
313.15 K, x1 = 0.064	3.05e-06	808.63
313.15 K, x1 = 0.1198	2.62e-06	812.36
313.15 K, x1 = 0.1968	2.21e-06	817.35
313.15 K, x1 = 0.2986	1.83e-06	823.7
313.15 K, x1 = 0.3995	1.56e-06	829.76
313.15 K, x1 = 0.5299	1.32e-06	837.23
313.15 K, x1 = 0.6009	1.22e-06	841.13
313.15 K, x1 = 0.6925	1.12e-06	846.03
313.15 K, x1 = 0.8022	1.04e-06	851.72
313.15 K, x1 = 0.872	9.99e-07	855.24
313.15 K, x1 = 0.9368	9.78e-07	858.5
313.15 K, x1 = 1	9.55e-07	861.65

CCCCC(=O)OC [methyl pentanoate]
[1]
Details	mass density [kg/m3]	viscosity [mPa·s]
283.15 K	–	0.816
293.15 K	889.75	0.712
298.15 K	–	0.661
303.15 K	879.51	0.623
313.15 K	869.32	0.551

CCCCCCCC [octane]
[1]
Details	mass density [kg/m3]	viscosity [mPa·s]
283.15 K	–	0.614
293.15 K	702.54	0.542
298.15 K	–	0.508
303.15 K	694.35	0.483
313.15 K	686.12	0.43

CCCCCCCC [octane] + CCCCCCO
[2], x1 = 1
Details	kinematic viscosity [m2/s]	mass density [kg/m3]
293.15 K	7.71e-07	702.54
303.15 K	6.96e-07	694.35
313.15 K	6.27e-07	686.12
